Consider 16 compounds from US8957064B2, “Fused pyrimidines” (Bayer Intellectual Property GmbH, priority 2009, dated 2015).

pIC50: −log10 of the molar value. Where only a bound is given, the exact number is not on record here.

What is called pIC50 is −log10 of the IC50, conventionally taken in molar units.

The target in assay [1] is His-tagged human recombinant kinase full-length Akt2 activated by PDK1 (Homo sapiens (Human), UniProt P31751). As to the kind of experiment: Akt2 kinase assay (Akt2 TR-FRET assay, Biological Assay 2.0). It is filed as biochemical. The conditions noted are these: 10 μM ATP, 1 μM biotinylated peptide substrate, 60 min at 22° C. From the text: Biological Assay 2.0: Akt2 Kinase Assay
Akt2 inhibitory activity of compounds of the present invention was quantified employing the Akt2 TR-FRET assay as described in the following paragraphs.
His-tagged human recombinant kinase full-length Akt2 expressed in insect cells and activated by PDK1 was purchased form Invitrogen (part number PV 3975). As substrate for the kinase reaction the biotinylated peptide biotin-Ahx-KKLNRTLSFAEPG (C-terminus in amide form) was used which can be purchased e.g. from the company Biosynthan GmbH (Berlin-Buch, Germany).
(§1) For the assay 50 nl of a 100 fold concentrated solution of the test compound in DMSO was pipetted into a black low volume 384 well microtiter plate (Greiner Bio-One, Frickenhausen, Germany), 2 μl of a solution of Akt2 in assay buffer [50 mM TRIS/HCl pH 7.5, 5 mM MgCl2, 1 mM dithiothreitol, 0.02% (v/v) Triton X-100 (Sigma)] were added and the mixture was incubated for 15 min at 22° C. to allow prebinding of the test compounds to the enzyme before the start of the kinase reaction. Then the kinase reaction was started by the addition of 3 μl of a solution of adenosine-tri-phosphate (ATP, 16.7 μM=>final conc. in the 5 μl assay volume is 10 μM) and substrate (1.67 μM=>final conc. in the 5 μl assay volume is 1 μM) in assay buffer and the resulting mixture was incubated for a reaction time of 60 min at 22° C. The concentration of Akt2 in the assay was adjusted depending of the activity of the enzyme lot and was chosen appropriate to have the assay in the linear range, typical enzyme concentrations were in the range of about 0.2 ng/μl (final conc. in the 5 μl assay volume).
(§2) The reaction was stopped by the addition of 5 μl of a solution of HTRF detection reagents (200 nM streptavidine-XL665 [Cisbio] and 1.5 nM anti-phosho-Serine antibody [Millipore, cat. #35-001] and 0.75 nM LANCE Eu-W 1024 labeled anti-mouse IgG antibody [Perkin Elmer]) in an aqueous EDTA-solution (100 mM EDTA, 0.1% (w/v) bovine serum albumin in 50 mM HEPES/NaOH pH 7.5).
(§3) The resulting mixture was incubated 1 h at 22° C. to allow the binding of the biotinylated phosphorylated peptide to the streptavidine-XL665 and the antibodies. Subsequently the amount of phosphorylated substrate was evaluated by measurement of the resonance energy transfer from the anti-mouse-IgG-Eu-Chelate to the streptavidine-XL665. Therefore, the fluorescence emissions at 620 nm and 665 nm after excitation at 350 nm was measured in a TR-FRET reader, e.g. a Rubystar (BMG Labtechnologies, Offenburg, Germany) or a Viewlux (Perkin-Elmer). The ratio of the emissions at 665 nm and at […] was taken as the measure for the amount of phosphorylated substrate. The data were normalised (enzyme reaction without inhibitor=0% inhibition, all other assay components but no enzyme=100% inhibition).
For orientation: TR-FRET usually uses a lanthanide donor and a delayed reading to cut background.

Assay [2] deals with His-tagged human recombinant kinase full-length Akt1 (Homo sapiens (Human), UniProt P31749). Description: Akt1 kinase assay (Akt1 TR-FRET assay, Biological Assay 1.0). It is filed as biochemical. The conditions noted are these: 10 μM ATP, 1 μM biotinylated peptide substrate, 60 min at 22° C.
From the text: Biological Assay 1.0: Akt1 Kinase Assay
Akt1 inhibitory activity of compounds of the present invention may be quantified employing the Akt1 TR-FRET assay as described in the following paragraphs. His-tagged human recombinant kinase full-length Akt1 expressed in insect cells was purchased form Invitrogen (part number PV 3599). As substrate for the kinase reaction the biotinylated peptide biotin-Ahx-KKLNRTLSFAEPG (C-terminus in amide form) was used which can be purchased e.g. from the company Biosynthan GmbH (Berlin-Buch, Germany).
as §1, with “Akt1” for “Akt2”, “0.05” for “0.2”
as §2
as §3, with “HTRF” for “TR-FRET”

Sequence of His-tagged human recombinant kinase full-length Akt1 (P31749 whole entry): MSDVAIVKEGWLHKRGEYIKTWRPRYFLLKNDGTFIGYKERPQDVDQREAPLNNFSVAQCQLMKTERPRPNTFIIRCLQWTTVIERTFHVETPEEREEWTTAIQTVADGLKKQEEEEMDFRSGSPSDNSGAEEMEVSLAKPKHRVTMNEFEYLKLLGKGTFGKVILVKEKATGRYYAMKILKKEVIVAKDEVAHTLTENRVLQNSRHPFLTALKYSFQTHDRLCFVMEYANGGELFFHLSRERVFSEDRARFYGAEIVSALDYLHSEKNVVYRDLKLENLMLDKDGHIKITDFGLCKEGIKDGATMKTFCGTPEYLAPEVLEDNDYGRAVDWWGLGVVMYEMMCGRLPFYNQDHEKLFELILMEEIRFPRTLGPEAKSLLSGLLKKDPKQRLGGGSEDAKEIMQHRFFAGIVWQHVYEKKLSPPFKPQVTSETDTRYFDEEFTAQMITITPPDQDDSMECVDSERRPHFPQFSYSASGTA
Sequence of His-tagged human recombinant kinase full-length Akt2 activated by PDK1 (P31751 whole entry): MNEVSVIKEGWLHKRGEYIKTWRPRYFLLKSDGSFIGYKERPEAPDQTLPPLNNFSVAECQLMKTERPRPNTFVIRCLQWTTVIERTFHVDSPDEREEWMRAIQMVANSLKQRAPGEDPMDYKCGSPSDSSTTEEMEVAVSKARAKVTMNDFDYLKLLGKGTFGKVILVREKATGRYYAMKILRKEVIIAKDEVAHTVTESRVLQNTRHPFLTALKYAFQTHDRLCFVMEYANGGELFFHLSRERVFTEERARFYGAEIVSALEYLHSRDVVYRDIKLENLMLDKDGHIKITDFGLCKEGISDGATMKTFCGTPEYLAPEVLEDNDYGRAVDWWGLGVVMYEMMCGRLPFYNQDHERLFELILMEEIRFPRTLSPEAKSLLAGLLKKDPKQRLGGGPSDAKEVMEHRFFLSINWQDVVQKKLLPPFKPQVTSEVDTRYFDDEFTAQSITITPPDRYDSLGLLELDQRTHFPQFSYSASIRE

Turning to `Cc1nc2nc(-c3ccc(CN4CCC(c5n[nH]c(-c6ccccn6)n5)C4)cc3)c(-c3ccccc3)cn2n1` (racemic) [Example 24.0, (±)-2-methyl-6-phenyl-5-{4-[3-(5-pyridin-2-yl-1H-[1,2,4]triazol-3-yl)-pyrrolidin-1-ylmethyl]-phenyl}-[1,2,4]triazolo[1,5-a]pyrimidine], the pIC50 in assay [1] is 6.36; in assay [2], 7.36.
Consider `Fc1ccc(-c2cn3ccnc3nc2-c2ccc(CN3CC(c4n[nH]c(-c5ccccn5)n4)C3)cc2)cc1` [Example 33.0, 6-(4-fluorophenyl)-7-{4-[3-(5-pyridine-2-yl-1H-[1,2,4]triazole-3-yl]-azetidine-1-ylmethyl]-phenyl}-imidazo[1,2-a]pyrimidine], for which the pIC50 in assay [1] is 6.60; in assay [2], 7.59.
In the same order, the values of `c1ccc(-c2cn3ccnc3nc2-c2ccc(CN3CCC(c4nc5cccnc5[nH]4)CC3)cc2)cc1` [Example 7.0, 2-{1-[4-(6-phenyl-imidazo[1,2-a]pyrimidin-7-yl)-benzyl]-piperidin-4-yl}-3H-imidazo[4,5-b]pyridine] are 6.22 and 7.25.
In the case of `Cc1cccc(-c2nc(C3CCN(Cc4ccc(-c5nc6nccn6cc5-c5ccccc5F)cc4)CC3)n[nH]2)n1` [Example 54.0, 6-(2-fluorophenyl)-7-(4-{4-[5-(6-methylpyridine-2-yl)-1H-[1,2,4]triazole-3-yl]-piperidine-1-ylmethyl}-phenyl)-imidazo[1,2-a]pyrimidine], the pIC50 in assay [1] was 7.77; in assay [2], 8.52.
As to `CC(C)Nc1nc2nc(-c3ccc(CN4CC(c5n[nH]c(-c6ccccn6)n5)C4)cc3)c(-c3ccccc3)cn2n1` [Example 43.1, isopropyl-(6-phenyl-5-{4-[3-(5-pyridin-2-yl-1H-[1,2,4]triazol-3-yl)-azetidin-1-ylmethyl]-phenyl}-[1,2,4]triazolo[1,5-a]pyrimidin-2-yl)-amine], the results for the pIC50 in assay [1] and in assay [2] were 7.96 and 7.66, respectively.
On to `COC(=O)c1cn2cc(-c3ccccc3)c(-c3ccc(CN4CC(c5n[nH]c(-c6ccccn6)n5)C4)cc3)nc2n1` [Example 74.1, 6-phenyl-7-{4-[3-[5-pyridine-2-yl-1H-[1,2,4]triazole-3-yl)azetidine-1-ylmethyl]-phenyl}-imidazo[1,2-a]pyrimidine-2-carboxylic acid methyl ester], for which the pIC50 in assay [1] is 7.77; in assay [2], 8.00.
As to `FC(F)(F)c1ccc2nc(C3CCN(Cc4ccc(-c5nc6ccnn6cc5-c5ccccc5)cc4)CC3)[nH]c2c1` [Example 17.0, 6-phenyl-5-{4-[4-(6-trifluoromethyl-1H-benzimidazol-2-yl)piperidin-1-ylmethyl]-phenyl}-pyrazolo[1,5-a]pyrimidine], the figures for the pIC50 in assay [1] and in assay [2] were less than 4.70 and 6.47, respectively.
On to `Cc1cccc(-c2nc(C3CN(Cc4ccc(-c5nc6nc(C7CC7)nn6cc5-c5ccc(F)cc5)cc4)C3)n[nH]2)n1` [Example 39.0, 2-cyclopropyl-6-(4-fluorophenyl)-5-(4-{3-[5-(6-methyl-pyridine-2-yl)-1H-[1,2,4]triazole-3-yl]-azetidine-1-ylmethyl}-phenyl)-[1,2,4]triazolo[1,5-a]pyrimidine], for which the pIC50 in assay [1] was 7.57; in assay [2], 7.54.
The corresponding values for `Cc1cccc(-c2nc(C3CN(Cc4ccc(-c5nc6nc(C(C)C)nn6cc5-c5ccccc5)cc4)C3)n[nH]2)n1` [Example 31.0, 2-isopropyl-5-(4-{3-[5-(6-methyl-pyridine-2-yl)-1H-[1,2,4]triazolo-3-yl]-azetidine-1-ylmethyl}-phenyl)-6-phenyl-[1,2,4]triazolo[1,5-a]pyrimidine] are 7.85 and 7.15.
As for `Fc1ccc(-c2cn3nc(C4CC4)nc3nc2-c2ccc(CN3CCC(c4n[nH]c(-c5ccccn5)n4)CC3)cc2)cc1` [Example 51.1, 2-cyclopropyl-6-(4-fluorophenyl)-5-{4-[4-(5-pyridine-2-yl-1H-[1,2,4]triazole-3-yl)-piperidine-1-ylmethyl]-phenyl}-[1,2,4]triazolo[1,5-a]pyrimidine], the negative-log IC50 (pIC50) in assay [1] is 7.16; in assay [2] it was 7.49.
For `COc1nn2cc(-c3c(F)cccc3F)c(-c3ccc(CN4CC(c5n[nH]c(-c6ccccn6)n5)C4)cc3)nc2c1CO` [Example 63.0, (6-(2,6-difluorophenyl)-2-methoxy-5-{4-[3-[5-pyridine-2-yl-1H-[1,2,4]triazole-3-yl)-azetidine-1-ylmethyl]-phenyl}-pyrazolo[1,5-a]pyrimidin-3-yl)-methanol], the figures for the negative logarithm of the IC50 (pIC50) in assay [1] and in assay [2] were 6.93 and 7.85, respectively.
In the same order, the values of `c1ccc(-c2cn3ccnc3nc2-c2ccc(CN3CCC(c4nc5ccncc5[nH]4)CC3)cc2)cc1` [Example 6.0, 2-{1-[4-(6-phenyl-imidazo[1,2-a]pyrimidin-7-yl)-benzyl]-piperidin-4-yl}-3H-imidazo[4,5-c]pyridine] are 5.91 and 6.80.
`N#Cc1ccc2nc(C3CCN(Cc4ccc(-c5nc6ccnn6cc5-c5ccccc5)cc4)CC3)[nH]c2c1` [Example 12.0, 2-{1-[4-(6-phenyl-pyrazolo[1,5-a]pyrimidin-5-yl)-benzyl]-piperidin-4-yl}-3H-benzimidazol-5-carbonitrile]: the pIC50 in assay [1] was 6.50; in assay [2] it was 7.41.
As to `c1ccc(-c2cn3ccnc3nc2-c2ccc(CN3CCC(c4cnc5ccccc5n4)CC3)cc2)cc1` [Example 36.0, 2-{1-[4-(6-phenyl-imidazo[1,2-a]pyrimidin-7-yl)-benzyl]-piperidine-4-yl}-quinoxaline], the pIC50 in assay [1] is 6.23; in assay [2] it was 7.15.
On to `Fc1ccc(-c2cn3nc(C4CC4)nc3nc2-c2ccc(CN3CCC(c4n[nH]c(-c5cc(Cl)ccn5)n4)CC3)cc2)cc1` [Example 51.2, 5-(4-{4-[5-(4-chloropyridine-2-yl)-1H-[1,2,4]triazole-3-yl]-piperidine-1-ylmethyl}-phenyl)-2-cyclopropyl-6-(4-fluorophenyl)-[1,2,4]triazolo[1,5-a]pyrimidine], for which the figures for the negative logarithm of the IC50 (pIC50) in assay [1] and in assay [2] were 6.78 and 7.25, respectively.
As for `c1ccc(-c2cn3nccc3nc2-c2ccc(CN3CCC(c4nc5cccnc5[nH]4)CC3)cc2)cc1` [Example 16.0, 2-{1-[4-(6-phenyl-pyrazolo[1,5-a]pyrimidin-5-yl)-benzyl]-piperidin-4-yl}-3H-imidazo[4,5-b]pyridine], the pIC50 in assay [1] was 5.97; in assay [2], 7.38.
